The test system of assay [1] is CTG-0137 HER2 positive esophageal cancer PDX model. The experiment in a line: CTG-0137 esophageal cancer PDX model, tumor growth inhibition. Format: in vivo, Mice. Conditions: study day 15; tucatinib 50 mg/kg orally twice per day, trastuzumab 20 mg/kg intraperitoneally once every three days. On the procedure: (§1) The TGI index is calculated for a particular time point (e.g., a specific number of days into an experiment or clinical trial) according to the following formula: […]
(§2) where “Tx Day 0” denotes the first day that treatment is administered (i.e., the first day that an experimental therapy or a control therapy (e.g., vehicle only) is administered) and “Tx Day X” denotes X number of days after Day 0. […] As a non-limiting example, in an experiment where study day 0 corresponds to “Tx Day 0” and the TGI index is calculated on study day 28 (i.e., “Tx Day 28”), if the mean tumor volume in both groups on study day 0 is 250 mm^3 and the mean tumor volumes in the experimental and control groups are 125 mm^3 and 750 mm^3, respectively, then the TGI index on day 28 is 125%.
(§3) Tucatinib was administered orally at a dose of 50 mg/kg twice per day for 28 days (study days 0-27). […] A vehicle-only group was included as a negative control.

For assay [2], the system named is CTG-0927 HER2 positive cholangiocarcinoma PDX model. Briefly: CTG-0927 cholangiocarcinoma PDX model, tumor growth inhibition. Format: in vivo, Mice. Conditions: study day 28; tucatinib 50 mg/kg orally twice per day, trastuzumab 20 mg/kg intraperitoneally once every three days. As for the experimental part: as §1, §2, §3
In assay [3] the test system is CTG-0383 HER2 positive CRC PDX model. The experiment in a line: CTG-0383 CRC PDX model, tumor growth inhibition. Conditions: study day 29; tucatinib 50 mg/kg orally twice per day, trastuzumab 20 mg/kg intraperitoneally once every three days. The class given is in vivo, Mice. As for the experimental part: as §1, §2, §3
Assay [4] concerns Calu-3 NSCLC xenograft model. The experiment in a line: Calu-3 NSCLC xenograft model, tumor growth inhibition. The class given is in vivo, Mice. The settings on record: study day 28; tucatinib 50 mg/kg orally twice per day for 21 days, trastuzumab 20 mg/kg intraperitoneally once every three days, from study day 7. As for the experimental part:
as §1, §2
(§4) For the Calu-3 study, tucatinib was administered orally at a dose of 50 mg/kg twice per day for 21 days, beginning on study day 7. […] A vehicle-only group was included as a negative control.

The next assay concerns NCI-H2170 cells. Briefly: Response of NCI-H2170 cells to tucatinib in vitro. Format: cell-based. Conditions: previously demonstrated.
For another assay, the system named is Calu-3 cells. Briefly: Response of Calu-3 cells to tucatinib in vitro. Conditions: previously demonstrated. Format: cell-based.
Assay [5] relates to CTG-0121 HER2 positive CRC PDX model. The experiment in a line: CTG-0121 CRC PDX model, tumor growth inhibition. Conditions: study day 29; tucatinib 50 mg/kg orally twice per day, trastuzumab 20 mg/kg intraperitoneally once every three days. Format: in vivo, Mice. On the procedure: as §1, §2, §3
In assay [6] the test system is GXA 3038 HER2 positive gastric cancer PDX model. The experiment in a line: GXA 3038 gastric cancer PDX model, tumor growth inhibition. Conditions: study day 28; tucatinib 50 mg/kg orally twice per day, trastuzumab 20 mg/kg intraperitoneally once every three days. Format: in vivo, Mice. As for the experimental part:
as §1, §2, §3

Assay [7] concerns CTG-0138 HER2 positive esophageal cancer PDX model. Briefly: CTG-0138 esophageal cancer PDX model, tumor growth inhibition. The class given is in vivo, Mice. Conditions: study day 30; tucatinib 50 mg/kg orally twice per day, trastuzumab 20 mg/kg intraperitoneally once every three days. As for the experimental part: as §1, §2, §3
Assay [8] has as its system GXA 3054 HER2 positive gastric cancer PDX model. The experiment in a line: GXA 3054 gastric cancer PDX model, tumor growth inhibition. The settings on record: study day 17; tucatinib 50 mg/kg orally twice per day, trastuzumab 20 mg/kg intraperitoneally once every three days. The class given is in vivo, Mice. As for the experimental part:
as §1, §2, §3

Assay [9] relates to CTG-0784 HER2 positive CRC PDX model. The experiment in a line: CTG-0784 CRC PDX model, tumor growth inhibition. The class given is in vivo, Mice. The settings on record: study day 29; tucatinib 50 mg/kg orally twice per day, trastuzumab 20 mg/kg intraperitoneally once every three days. On the procedure: as §1, §2, §3
Assay [10] concerns GXA 3039 HER2 positive gastric cancer PDX model. The experiment in a line: GXA 3039 gastric cancer PDX model, tumor growth inhibition. Format: in vivo, Mice. The settings on record: study day 29; tucatinib 50 mg/kg orally twice per day, trastuzumab 20 mg/kg intraperitoneally once every three days. On the procedure: as §1, §2, §3
Assay [11] deals with NCI-H2170 NSCLC xenograft model. The experiment in a line: NCI-H2170 NSCLC xenograft model, tumor growth inhibition. Format: in vivo, Mice. Conditions: study day 39; tucatinib 50 mg/kg orally twice per day for 21 days, trastuzumab 20 mg/kg intraperitoneally twice per week, from study day 18. As for the experimental part: as §1, §2, §4
For the NCI-H2170 study, tucatinib was administered orally at a dose of 50 mg/kg twice per day for 21 days, beginning on study day 18. […] A vehicle-only group was included as a negative control.

Molecules are shown by their SMILES.

For `Cc1cc(Nc2ncnc3ccc(NC4=NC(C)(C)CO4)cc23)ccc1Oc1ccn2ncnc2c1` [Tucatinib, tucatinib], the “Observed TGI (tumor growth inhibition index)” value in [1] is on record as 49%; in assay [2], 48%; in assay [3], 117%; in [4], 63%; in assay [5], 104%; in [6] it was 110%. Further, the “Observed TGI (tumor growth inhibition index)” value worked out at 69% in [7]; 65% in [8]; 50% in assay [9]; 48% in [10]; 91% in assay [11]. Besides, the “Response to tucatinib in vitro” value in the assay with NCI-H2170 cells and with Calu-3 cells was “good responses” in each case.

The record behind these values is US20230270745A1 (Seagen Inc., priority 2020, published 2023).
